The values below come from US9102622B2 (University of Connecticut, priority 2006, dated 2015).

pIC50, pKi: −log10 of the molar value. Read-outs that look alike come from different tables or passages of the source.

This assay deals with fatty acid amide hydrolase (FAAH) (Rattus norvegicus (Rat), UniProt P97612). In words: FAAH enzyme assay: inhibition of anandamide (AEA) hydrolysis, arachidonic acid quantified by HPLC. Type of assay: biochemical. The conditions noted are these: for inhibition at 0.1 µM: inhibitor 100 nM; for inhibition at 0.1 µM / inhibition at 100 µM: read-out: % Inhibition (Concentration). As for the experimental part:
The resulting supernatant is injected onto the HPLC.

[1] abbreviates: eight-point assay, anandamide hydrolysis by FAAH, read-out: IC50.
Setting [2] is: eight-point assay, calculated with Prizm software, read-out: Ki.
The mark [3] stands for this setting: one-point assay, partially purified rat brain FAAH, 15 min.
[4] abbreviates: one-point assay, inhibitor 100 μM, partially purified rat brain FAAH, 15 min.

Chain of fatty acid amide hydrolase (FAAH) (P97612 whole entry): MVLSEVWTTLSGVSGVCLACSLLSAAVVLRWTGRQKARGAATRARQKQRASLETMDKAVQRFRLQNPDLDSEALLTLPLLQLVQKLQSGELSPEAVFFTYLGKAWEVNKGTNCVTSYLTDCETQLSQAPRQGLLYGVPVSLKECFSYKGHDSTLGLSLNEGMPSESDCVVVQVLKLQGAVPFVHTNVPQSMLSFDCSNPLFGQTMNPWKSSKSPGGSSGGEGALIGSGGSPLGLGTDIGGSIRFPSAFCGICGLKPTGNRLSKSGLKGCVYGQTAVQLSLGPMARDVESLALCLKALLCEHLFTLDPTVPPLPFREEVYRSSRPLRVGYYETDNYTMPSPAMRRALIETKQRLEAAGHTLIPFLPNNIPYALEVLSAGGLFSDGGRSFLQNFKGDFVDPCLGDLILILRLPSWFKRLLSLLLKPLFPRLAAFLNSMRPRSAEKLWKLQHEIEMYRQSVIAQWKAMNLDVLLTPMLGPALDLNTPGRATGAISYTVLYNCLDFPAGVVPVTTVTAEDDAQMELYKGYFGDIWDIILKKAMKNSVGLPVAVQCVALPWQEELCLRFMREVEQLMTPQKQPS

As to `O=C(c1cccnc1)C(F)(F)CCCCOc1ccccc1` [Compound 89.10, 2,2-Difluoro-6-phenoxy-1-(pyridin-3-yl)-hexan-1-one], under setting [1], the pIC50 was 6.79. Moreover, the pKi under setting [2] was 7.28. Further, under setting [3], the inhibition at 0.1 µM worked out at 33%.

For `CCOC(=O)C(=O)c1ccc(Br)cc1` [Compound 91.5, Ethyl 2-(4-bromophenyl)-2-oxoacetate], the inhibition at 100 µM under setting [4] was found to be 79%.

Consider `CCCCCCC(C)(C)c1cc(OCOCC)c(-c2ccc(NC(=O)OCc3ccccc3)cc2)c(OCOCC)c1` [Compound 52.3, 2′,6′-Bis(ethoxymethoxy)-4′-(1,1-dimethylheptyl)[1,1′-biphenyl]-4-yl carbamic acid benzyl ester], for which the inhibition at 100 µM under setting [4] worked out at 41%.

`O=S(=O)(F)CCCCCCCc1cccc(O)c1` [Compound 14.2, 7-(3-Hydroxy-phenyl)-heptanesulfonyl fluoride]: the pIC50 under setting [1] was 6.95. For the same molecule, under setting [2], the pKi was 7.59. The inhibition at 100 µM under setting [4] turned out to be 99%.

With `CCOC(=O)C(=O)CCCCOc1cccc(OCc2ccccc2)c1` [Compound 87.1], under setting [4], the inhibition at 100 µM was determined as 100%.

On to `CCOC(=O)C(=O)CCCCCOc1ccccc1` [Compound 87.4, 2-Oxo-7-phenoxy-heptanoic acid ethyl ester], for which the pIC50 under setting [1] is 6.54. Further, under setting [2], the pKi is 7.05. For the same molecule, the inhibition at 100 µM under setting [4] was 100%.

As for `O=S(=O)(F)CCCCCCCc1ccccc1O` [Compound 14.3, 7-(2-Hydroxy-phenyl)-heptanesulfonyl fluoride], under setting [1], the pIC50 was 7.27. Besides, the pKi under setting [2] was 7.89. Under setting [4], the inhibition at 100 µM was determined as 100%.

As to `Cc1nnc(C(=O)C(F)(F)CCCCOc2ccccc2)o1` [Compound 89.12], under setting [1], the pIC50 is 6.51. Moreover, under setting [2], the pKi was 7.00. Moreover, under setting [3], the inhibition at 0.1 µM was determined as 20%.

On to `O=C(CCCCc1ccccc1)C(F)(F)F` [Compound 27.2, 1,1,1-Trifluoro-6-phenyl-2-hexanone], for which the negative logarithm of the IC50 (pIC50) under setting [1] is 4.73. Moreover, under setting [2], the pKi was 5.68. The inhibition at 100 µM under setting [4] is 53%.

`O=S(=O)(F)CCCc1ccccc1` [Compound 4.1, 3-Phenyl-propanesulfonyl fluoride, reference compound]: under setting [4], the inhibition at 100 µM is 19%.

`O=C(CCCOc1cccc(OCc2ccccc2)c1)C(F)(F)F` [Compound 23.5, 1,1,1-Trifluoro-5-[3-(Benzyloxy)phenoxy]-2-pentanone]: the pIC50 under setting [1] is 5.16. Also, under setting [2], the pKi was 6.11. In addition, the inhibition at 100 µM under setting [4] was 93%.

As to `CCCCCCC(C)(C)c1cc(O)c(-c2ccc(NC(=O)OCC)cc2)c(O)c1` [Compound 53.2, 2′,6′-Dihydroxy-4′-(1,1-dimethylheptyl)[1,1′-biphenyl]-4-yl carbamic acid ethyl ester], the inhibition at 100 µM under setting [4] is 15%.

Take `O=C1c2ccccc2S(=O)(=O)N1Cc1ccccc1` [Compound 83.1, N-(Phenylmethyl)saccharin]: the inhibition at 100 µM under setting [4] is 42%.

Regarding `O=S(=O)(F)CCCCCCCc1ccccc1` [Compound 4.2, 7-Phenyl-heptanesulfonyl fluoride, reference compound], the inhibition at 100 µM under setting [4] amounted to 31%.

As to `O=C(NCc1ccc(Br)cc1)OCc1ccccc1` [Compound 57.2, (4-Bromobenzyl)carbamic acid benzyl ester], the inhibition at 100 µM under setting [4] was found to be 89%.

As for `O=C(Nc1ccc(Br)cc1)OC1CCCCC1` [Compound 48.1, (4-Bromophenyl)carbamic acid cyclohexyl ester], the inhibition at 100 µM under setting [4] was found to be 25%.

Take `O=S(=O)(Cl)CCCCCCCc1cccc(OCc2ccccc2)c1` [Compound 12.2, 7-(3-Benzyloxy-phenyl)-heptanesulfonyl chloride]: under setting [1], the pIC50 is 4.92. The pKi under setting [2] was 5.54. In addition, the inhibition at 100 µM under setting [4] came out at 97%.

For `O=C(CCCCCCOc1ccccc1)c1nnc(CO)o1` [Compound 74.1, 1-(5-hydroxymethyl-1,3,4-oxadiazol-2-yl)-7-phenoxy-heptan-1-one], under setting [1], the pIC50 is 7.82. Further, the negative logarithm of the Ki (pKi) under setting [2] is 9.00. In addition, the inhibition at 100 µM under setting [4] was 96%.

For `O=C(CCCCCOc1ccc(O)cc1)C(F)(F)F` [Compound 24.3, 1,1,1-Trifluoro-7-[4-(hydroxy)phenoxy]-2-heptanone], the pIC50 under setting [1] was 4.94. Further, the pKi under setting [2] is 6.10. Under setting [4], the inhibition at 100 µM is 86%.

As for `Cc1nnc(C(=O)C(F)(F)CCCCOc2cccc(OCc3ccccc3)c2)o1` [Compound 89.13], the pIC50 under setting [1] is 7.42.

Regarding `O=S(=O)(F)CCCCCCCCc1ccccc1` [Compound 4.3, 8-Phenyl-octanesulfonyl fluoride, reference compound], where the note is “one-point assay, concentration not given”, the “% Inhibition (Concentration)” value is 24%.

As for `O=S(=O)(Cl)CCCCCCCc1ccccc1OCc1ccccc1` [Compound 12.3, 7-(2-Benzyloxy-phenyl)-heptanesulfonyl chloride], under setting [1], the pIC50 was 5.76. For the same molecule, under setting [2], the pKi is 6.39. The inhibition at 100 µM under setting [4] amounted to 97%.

`O=C(CCCCCCOc1ccccc1)C(F)(F)c1ccccn1` [Compound 96.1, 1,1-Difluoro-8-phenoxy-1-(pyridin-2-yl)octan-2-one]: the inhibition at 100 µM under setting [4] was 86%.

As to `O=C(Nc1ccc(Br)cc1)OC12CC3CC(CC(C3)C1)C2` [Compound 48.4], the inhibition at 100 µM under setting [4] came to 56%.

For the molecule `O=C(c1cccc(-c2cccc(OCc3ccccc3)c2)c1)C(F)(F)F` [Compound 30], the inhibition at 100 µM under setting [4] is 33%.

For `O=C(c1ccc(-c2ccccc2)cc1)C(F)(F)c1ccccn1` [Compound 96.2, 1 (Biphenyl-4-yl)-2,2-difluoro-2-(pyridin-2-yl)ethanone], the inhibition at 100 µM under setting [4] came out at 61%.

`Oc1cccc(OCCCC(O)(O)C(F)(F)F)c1` [Compound 24.5, 1,1,1-Trifluoro-2,2-dihydroxy-5-[3-(hydroxy)phenoxy]pentane]: the pIC50 under setting [1] is 4.64. For the same molecule, under setting [2], the negative-log Ki (pKi) is 5.60. Also, under setting [4], the inhibition at 100 µM was 79%.

Molecule `O=S(=O)(F)CCCCCCCc1ccccc1OCc1ccccc1` [Compound 13.3, 7-(2-Benzyloxy-phenyl)-heptanesulfonyl fluoride] had a pIC50 of 6.71 and a pKi of 7.34. Moreover, the inhibition at 100 µM under setting [4] was determined as 100%.

For `COc1ccc(CCCCC(=O)C(F)(F)F)cc1` [Compound 27.4, 1,1,1-Trifluoro-6-(4-methoxy-phenyl)-2-hexanone], the pIC50 under setting [1] is 5.16. Further, under setting [2], the pKi is 6.22. In addition, the inhibition at 100 µM under setting [4] was found to be 82%.

Turning to `CCCCCCC(C)(C)c1cc(O)c(-c2ccc(NC(=O)OCc3ccccc3)cc2)c(O)c1` [Compound 53.3, 2′,6′-Dihydroxy-4′-(2-methyloctane-2-yl)biphenyl-4-yl carbamic acid benzyl ester], the inhibition at 100 µM under setting [4] worked out at 89%.

For `O=S(=O)(F)CCCCCCCc1cccc(OCc2ccccc2)c1` [Compound 13.2, 7-(3-Benzyloxy-phenyl)-heptanesulfonyl fluoride], the inhibition at 100 µM under setting [4] was determined as 97%.

As for `O=C1c2ccccc2S(=O)(=O)N1CCCCOc1ccc(OCc2ccccc2)cc1` [Compound 83.3, N-[4-(4-Benzyloxy-phenoxy)-butyl]saccharin], the pIC50 under setting [1] is 4.96. In addition, the inhibition at 100 µM under setting [4] was 87%.

Take `O=C(CCCCCOc1cccc(OCc2ccccc2)c1)C(F)(F)F` [Compound 23.7, 1,1,1-Trifluoro-7-[3-(Benzyloxy)phenoxy]-2-heptanone]: under setting [1], the pIC50 is 6.33. Under setting [2], the negative-log Ki (pKi) was 7.28. The inhibition at 100 µM under setting [4] turned out to be 96%.

Regarding `O=C(CCCCCCOc1ccc(OCc2ccccc2)cc1)c1nnc(COCc2ccccc2)o1` [Compound 73.2, 7-(4-Benzyloxy-phenoxy)-1-(5-benzyloxymethyl-1,3,4-oxadiazol-2-yl)-heptan-1-one], the inhibition at 100 µM was found to be 93%. The pIC50 under setting [1] was 7.68. Moreover, under setting [2], the pKi was 8.70.

In the case of `O=C(CCCOc1ccccc1O)C(F)(F)F` [Compound 24.8, 1,1,1-Trifluoro-5-[2-(hydroxy)phenoxy]-2-pentanone], under setting [1], the pIC50 is 3.86. Under setting [2], the negative logarithm of the Ki (pKi) was 4.82. Also, the inhibition at 100 µM under setting [4] was 43%.

Regarding `O=C(CCCOc1ccc(O)cc1)C(F)(F)F` [Compound 24.1, 1,1,1-Trifluoro-5-[4-(hydroxy)phenoxy]-2-pentanone], under setting [1], the pIC50 is 4.83. Further, under setting [2], the pKi was 5.77. In addition, the inhibition at 100 µM under setting [4] stood at 68%.

Consider `O=C1c2ccccc2S(=O)(=O)N1CCCCOc1ccccc1` [Compound 83.2, N-(4-Phenoxy-butyl)saccharin], for which, under setting [1], the negative logarithm of the IC50 (pIC50) is 4.94. Further, the inhibition at 100 µM under setting [4] turned out to be 91%.

For the molecule `CCOC(=O)C(=O)c1ccc(-c2ccccc2)cc1` [Compound 91.1, Ethyl 2-(biphenyl-4-yl)-2-oxoacetate], under setting [1], the pIC50 is 4.82. Under setting [2], the pKi is 5.34. Also, under setting [4], the inhibition at 100 µM stood at 86%.

Take `O=C(CCCCCOc1cccc(O)c1)C(F)(F)F` [Compound 24.7, 1,1,1-Trifluoro-7-[3-(hydroxy)phenoxy]-2-heptanone]: the pIC50 under setting [1] is 5.30. Also, the pKi under setting [2] was 6.36.

With `O=S(=O)(Cl)CCCCCc1ccc(OCc2ccccc2)cc1` [Compound 12.4, 5-(4-Benzyloxy-phenyl)-pentanesulfonyl chloride], under setting [4], the inhibition at 100 µM came to 95%.

As to `O=C(CCCCCOc1ccccc1O)C(F)(F)F` [Compound 24.10, 1,1,1-Trifluoro-7-[2-(hydroxy)phenoxy]-2-heptanone], under setting [1], the pIC50 is 4.58. Also, the pKi under setting [2] is 5.74. Under setting [4], the inhibition at 100 µM came out at 82%.

For the molecule `O=C(Cc1cccc(-c2cccc(OCc3ccccc3)c2)c1)C(F)(F)F` [Compound 35, 1,1,1-Trifluoro-3-(3-benzyloxy-biphenyl-3-yl)-2-propanone], the inhibition at 100 µM under setting [4] was 54%.

Consider `CC(=O)C(F)(F)CCCCOc1cccc(OCc2ccccc2)c1` [Compound 89.1], for which the negative logarithm of the IC50 (pIC50) under setting [1] is 6.57. For the same molecule, the pKi under setting [2] is 7.10. Moreover, the inhibition at 0.1 µM under setting [3] came to 79%.
